Holding throughout (assay type): cell-based
The test system of experiment [1] is androgen-treated cancer cell lines (AR+ and AR-). Briefly: Cell growth after 7 days of treatment with dihydrotestosterone, enzalutamide and their combination. The settings on record: for cell growth on androgen stimulation: DHT 10 nM. As for the experimental part:
(§1) • Figure 1. […] Study of cell proliferation by MTT assay in AR+ MCF7, BT474, BT549 and HS 578T lines and in AR-HCC1937, HCC1569 and MDA-MB-231 lines at 24, 48 and 72 hours after enzalutamide treatment. Error bars are not shown when smaller than the symbol size. IC50 (best fit and 95% confidence interval) shown below. • Figure 2. […] Cell viability study by Annexin V/propidium iodide labelling in AR+ MCF7, BT474, BT549 and HS 578T lines and in AR- HCC1937, HCC1569 and MDA-MB-231 lines after 72 hours of enzalutamide treatment. Error bars represent SD. Significance between C- and different conditions shown without brackets (^∗p < 0.05, ^∗∗p < 0.01, ★p<0.001). • Figure 3. A) Effect of […] dihydrotestosterone, 10 µM enzalutamide and their combination on the indicated cell lines after 7 days of treatment. Data are the average of three independent experiments. Error bars represent SD. Statistically significant differences between C- and different conditions are shown without brackets (*p < 0.05, **p < 0.01, *p<0.001). […] Study of cell proliferation by MTT assay in the AR+ LN18 line and in the AR- SKOV-3 and CAL33 lines at 24, 48 and 72 hours after treatment with enzalutamide.
To assess whether the effect of enzalutamide is androgen-independent, we tested the effect of enzalutamide on androgen-treated cancer cell lines. We studied the effects of dihydrotestosterone (DHT) (10 nM), enzalutamide (10 µM) and their combination on the different lines (Figure 3A).

The test system of experiment [2] is AR+ LN18 line and AR- SKOV-3 and CAL33 lines. Nature of the experiment: Cell proliferation by MTT assay in ovarian, glioblastoma and head and neck cancer cell lines. The settings on record: SKOV-3 (AR-), 24, 48 and 72 hours, preliminary results. The method, then:
as §1

For experiment [3], the system named is AR+ MCF7, BT474, BT549 and HS 578T lines and AR- HCC1937, HCC1569 and MDA-MB-231 lines. Nature of the experiment: Cell proliferation by MTT assay in breast cancer cell lines. The method, then: as §1
Experiment [4] has the same test system. Briefly: Apoptosis / cell viability by Annexin V/propidium iodide labelling and flow cytometry in breast cancer cell lines. The settings on record: varying concentrations, 72 hours, independent of receptor status. As for the experimental part:
as §1
A general note: Flow cytometry measures light scatter and fluorescence of single cells or particles in a stream.

Results on two molecules are retold here after patent publication EP4400100A1, “ANT[…] USE IN THE TREATMENT OF CANCER” (Instituto de Investigación Biomédica de Salamanca De la …, priority 2023, dated 2024).

For `C[C@]12CCC(=O)C[C@@H]1CC[C@@H]1[C@@H]2CC[C@]2(C)[C@@H](O)CC[C@@H]12` [dihydrotestosterone], the “cell growth on androgen stimulation” value in experiment [1] (BT474 (AR+) and AR- lines) is on record as “No significant differences”; in experiment [1] (HS 578 T, followed by BT549 and MCF7 (AR+)) it was “highest increase in cell growth”.
As for `CNC(=O)c1ccc(N2C(=S)N(c3ccc(C#N)c(C(F)(F)F)c3)C(=O)C2(C)C)cc1F` [enzalutamide], in experiment [2], the proliferation entry is recorded as “induces an inhibitory effect on proliferation regardless of the androgen receptor status of the tumours”. In experiment [1] (enzalutamide 10 µM alone), the inhibition of proliferation entry is given as “induced a higher inhibition of proliferation than that observed at 72 hours”. In addition, the “inhibition of cell proliferation” value in experiment [1] (enzalutamide 10 µM combined with DHT 10 nM, AR+ and AR- cells) is “the inhibition of cell proliferation was less than that of enzalutamide alone”. The “cell growth inhibition, ranking of cell lines” value in experiment [3] (MDA-MB-231 (AR-) line, 24, 48 or 72 hours, followed by HCC1569 (AR-), BT474 (AR+) and BT549 (AR+)) was “the most affected”. The cell proliferation result in experiment [3] (all breast cancer cell lines tested (AR+ and AR-), 24, 48 and 72 hours of treatment, higher efficacy at 72 hours) is “inhibited cell proliferation in a dose- and time-dependent manner in all cell lines tested”. The apoptosis result in experiment [4] is “induced apoptosis in a dose-dependent manner”.
